Reference: patent US12576087B2, “Aryloxypiperidine pyrazole compounds as indoleamine 2,3-dioxygenase inhibitors” (Merck Sharp & Dohme LLC, priority 2018, dated 2026)
Read-outs that look alike come from different tables or passages of the source.

Molecular target: IDO1 (Homo sapiens, UniProt P14902)
Assay: IDO1 Human Whole Blood Assay
Format: cell-based
Procedure: Compounds to be tested were serially diluted in ten 3-fold steps in DMSO starting from 10 mM. 3 μL of compound dilutions or DMSO alone were then dispensed from the dilution plate into a polypropylene 96-well assay plate containing 97 μL of RPMI medium using an Echo 555 acoustic liquid handler (Labcyte). LPS and IFNγ was prepared in RPMI medium to a 10× of final conc. (1000 ng/mL), final concentration is 100 ng/mL.
Human whole blood was drawn in sodium heparin coated tubes from healthy internal donors. 240 μL of blood was transferred to each of the wells of a v-bottom 96 well plate. 30 μL of compound was transferred from intermediate dilution plate, and incubated for 15 min. 30 μL from stimulants was then transferred to blood and mixed thoroughly. Plate was covered with breathable membrane and incubated at 37° C. for overnight (18 h).
On day 2, isotope labeled standard solutions of kunurenine and tryptophan was made in water at 10× concentration and 30 μL was added to the blood at 3 μM final concentration. The assay plates were centrifuged at 300×G for 10 min with no brake to separate plasma from red blood cells. 60 μL of plasma samples was removed without disturbing red blood cells. Plasma was diluted with RPMI in 1:1 ratio and proteins were precipitated out with two volumes of Acetonitrile. The plates were centrifuged at 4000×G for 60 min. 20 μL of supernatant was carefully transferred to a 384 well plate containing 40 μL of 0.1% formic acid in water and analyzed by LC/MS/MS.
LC/MS/MS analyses were performed using Thermo Fisher's LX4-TSQ Quantum Ultra system. This system consists of four Agilent binary high-performance liquid chromatography (HPLC) pumps and a TSQ Quantum Ultra triple quadrupole MS/MS instrument. For each sample, 5 μL were injected onto an Atlantis T3 column (2.1 mm×150 mm, 3 μm particle size) from Waters. The mobile phase gradient pumped at 0.8 mL/min was used to elute the analytes from the column at 25° C. The elution started at 0% B increasing linearly to 25% B at 6.5 min, holding at 25% for 1 min, re-equilibrating to 10 min. Mobile phase A consisted of 0.1% formic acid in water. Mobile phase B consisted of 0.1% of formic acid in acetonitrile. Data were acquired in positive mode using a HESI interface. The operational parameters for the TSQ Quantum Ultra instrument were a spray voltage of 4000 V, capillary temperature of 380° C., vaporizer temperature 400° C., shealth gas 60 arbitrary units, Aux gas 20 arbitrary units, tube lens 85 and collision gas 1.2 mTorr. SRM chromatograms of kynurenine (Q1: 209.2>Q3:94.0) and internal standard (Q1: 215.3>Q3:98.2) were collected for 90 sec. The peak area was integrated by Xcalibur Quan software. The ratios between the kynurenine generated in the reaction and 2D6-Kynurenine spiked-in internal standard were used to generate percentage inhibition and IC50 values. Compounds were titrated and IC50's were calculated by 4 parameter sigmoidal curve fitting formula.

[1] = WBLD taken as whole blood, read-out: WBLD IC50
[2] = human whole blood, LPS and IFNγ 100 ng/mL, 18 h, kynurenine by LC/MS/MS, read-out: IDO1 human whole blood assay, IC50

Chain of IDO1 (P14902 whole entry): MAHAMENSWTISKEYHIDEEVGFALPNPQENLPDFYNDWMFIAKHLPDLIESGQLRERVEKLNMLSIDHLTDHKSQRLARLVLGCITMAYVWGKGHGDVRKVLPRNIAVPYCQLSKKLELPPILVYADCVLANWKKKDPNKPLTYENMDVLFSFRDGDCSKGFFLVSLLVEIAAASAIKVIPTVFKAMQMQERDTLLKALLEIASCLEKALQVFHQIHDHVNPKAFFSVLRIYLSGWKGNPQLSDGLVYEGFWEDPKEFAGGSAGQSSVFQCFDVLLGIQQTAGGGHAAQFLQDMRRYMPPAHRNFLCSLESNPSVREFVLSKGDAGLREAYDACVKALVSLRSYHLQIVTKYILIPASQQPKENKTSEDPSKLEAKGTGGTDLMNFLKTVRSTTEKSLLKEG

Compound | IC50 [1] [nM] | IC50 [2] [nM]
Cc1ccccc1OC1CCN(C(=O)Cn2nc(C(=O)N3CCC(F)(CO)CC3)c3c2CCC3)CC1 [Example 30, 2-(3-(4-fluoro-4-(hydroxymethyl)piperidine-1-carbonyl)-5,6-dihydrocyclopenta[c]pyrazol-1(4H)-yl)-1-(4-(o-tolyloxy)piperidin-1-yl)ethanone] | 188 | –
Cc1ccccc1OC1CCN(C(=O)Cn2nc(C(=O)N3CCC(O)CC3)c3c2CCCC3)CC1 [Example 18, 2-(3-(4-hydroxypiperidine-1-carbonyl)-4,5,6,7-tetrahydro-1H-indazol-1-yl)-1-(4-(o-tolyloxy)piperidin-1-yl)ethanone] | 64 | –
C[C@@H]1CN(C(=O)c2nn(CC(=O)N3CCC(Oc4cc(F)ccc4Br)CC3)c3c2CCC3)C[C@H](C)O1 [Example 91, 1-[4-(2-bromo-5-fluorophenoxy)piperidin-1-yl]-2-{3-[(2R,6S)-2,6-dimethylmorpholine-4-carbonyl]-5,6-dihydrocyclopenta[c]pyrazol-1(4H)-yl}ethan-1-one] | 86.6 | –
Cc1ccccc1OC1CCN(C(=O)Cn2nc(C(=O)N3CC[C@H](O)C[C@@H]3C)c3c2CCCC3)CC1 [Example 17, 2-(3-((2S,4S)-4-hydroxy-2-methylpiperidine-1-carbonyl)-4,5,6,7-tetrahydro-1H-indazol-1-yl)-1-(4-(o-tolyloxy)piperidin-1-yl)ethanone] | 114 | –
Cc1cc(F)ccc1OC1CCN(C(=O)Cn2nc(C(=O)N3CCN(C(=O)CO)CC3)c3c2CCCC3)CC1 [Example 79, 1-[4-(4-fluoro-2-methyl-phenoxy)-1-piperidyl]-2-[3-[4-(2-hydroxyacetyl)piperazine-1-carbonyl]-4,5,6,7-tetrahydroindazol-1-yl]ethanone] | 140 | –
Cc1ccccc1OC1CCN(C(=O)Cn2nc(C(=O)N3CCC(OCCO)CC3)c3c2CCC3)CC1 [Example 19, 2-(3-(4-(2-hydroxyethoxy)piperidine-1-carbonyl)-5,6-dihydrocyclopenta[c]pyrazol-1(4H)-yl)-1-(4-(o-tolyloxy)piperidin-1-yl)ethanone] | 27.3 | –
Cc1ccccc1OC1CCN(C(=O)Cn2nc(C(=O)N3CCC(O)(C(F)F)CC3)c3c2CCCC3)CC1 [Example 22, 2-(3-(4-(difluoromethyl)-4-hydroxypiperidine-1-carbonyl)-4,5,6,7-tetrahydro-1H-indazol-1-yl)-1-(4-(o-tolyloxy)piperidin-1-yl)ethanone] | 92.4 | –
O=C(CO)N1CCN(C(=O)c2nn(CC(=O)N3CCC(Oc4ccccc4Cl)C4CC43)c3c2[C@@H]2C[C@@H]2C3)CC1 (single isomer, unassigned) [Example 170] | 102 | –
Cc1ccccc1OC1CCN(C(=O)Cn2nc(C(=O)N3CCC(O)(CF)CC3)c3c2CCC3)CC1 [Example 35, 2-(3-(4-(fluoromethyl)-4-hydroxypiperidine-1-carbonyl)-5,6-dihydrocyclopenta[c]pyrazol-1(4H)-yl)-1-(4-(o-tolyloxy)piperidin-1-yl)ethanone] | 140 | –
Cc1ccc(F)cc1OC1CCN(C(=O)Cn2nc(C(=O)N3C[C@@H](C)O[C@@H](C)C3)c3c2CCC3)CC1 [Example 135, 2-[3-(2,6-dimethylmorpholine-4-carbonyl)-5,6-dihydrocyclopenta[c]pyrazol-1(4H)-yl]-1-[4-(5-fluoro-2-methylphenoxy)piperidin-1-yl]ethan-1-one] | 112 | –
Cc1ccc(F)cc1OC1CCN(C(=O)Cn2nc(C(=O)N3C[C@@H](C)O[C@@H](C)C3)c3c2CCC3)CC1 [Example 90, 2-(3-(cis-2,6-Dimethylmorpholine-4-carbonyl)-5,6-dihydrocyclopenta[c]pyrazol-1(4H)-yl)-1-(4-(5-fluoro-2-methylphenoxy)piperidin-1-yl)ethan-1-one] | 142 | –
Cc1ccccc1OC1CCN(C(=O)Cn2nc(C(=O)N3CC[C@H](O)[C@H](F)C3)c3c2CCCC3)CC1 [Example 31, 2-(3-((3R,4S)-3-fluoro-4-hydroxypiperidine-1-carbonyl)-4,5,6,7-tetrahydro-1H-indazol-1-yl)-1-(4-(o-tolyloxy)piperidin-1-yl)ethanone] | 590 | –
C[C@@H]1CN(C(=O)c2nn(CC(=O)N3CCC(Oc4cccc(F)c4)CC3)c3c2CCC3)C[C@H](C)O1 [Example 99, 2-{3-[(2R,6S)-2,6-dimethylmorpholine-4-carbonyl]-5,6-dihydrocyclopenta[c]pyrazol-1(4H)-yl}-1-[4-(3-fluorophenoxy)piperidin-1-yl]ethan-1-one] | 575 | –
Cc1ccccc1OC1CCN(C(=O)Cn2nc(C(=O)N3CCC(OCCO)CC3)c3c2CCCC3)CC1 [Example 20, 2-(3-(4-(2-hydroxyethoxy)piperidine-1-carbonyl)-4,5,6,7-tetrahydro-1H-indazol-1-yl)-1-(4-(o-tolyloxy)piperidin-1-yl)ethanone] | 20 | –
CCOC(=O)c1nn(CC(=O)N2CC[C@@H](Oc3ccccc3Cl)C[C@H]2C)c2c1CCCC2 [Example 11, ethyl 1-(2-((2R,4R)-4-(2-chlorophenoxy)-2-methylpiperidin-1-yl)-2-oxoethyl)-4,5,6,7-tetrahydro-1H-indazole-3-carboxylate] | – | 378
C[C@@H]1CN(C(=O)c2nn(CC(=O)N3CCC(Oc4ccc(F)cc4Cl)CC3)c3c2CCC3)C[C@H](C)O1 [Example 117, 1-[4-(2-chloro-4-fluorophenoxy)piperidin-1-yl]-2-{3-[(2R,6S)-2,6-dimethylmorpholine-4-carbonyl]-5,6-dihydrocyclopenta[c]pyrazol-1(4H)-yl}ethan-1-one] | 490 | –
NC(=O)CN1CCN(C(=O)c2nn(CC(=O)N3CCC(Oc4ccccc4Cl)CC3)c3c2CCCC3)CC1 [Example 5, 2-(4-(1-(2-(4-(2-chlorophenoxy)piperidin-1-yl)-2-oxoethyl)-4,5,6,7-tetrahydro-1H-indazole-3-carbonyl)piperazin-1-yl)acetamide] | – | 543
Cc1cc(F)ccc1OC1CCN(C(=O)Cn2nc(C(=O)N3CCC(F)(CO)CC3)c3c2CCC3)CC1 [Example 80, 2-[3-[4-fluoro-4-(hydroxymethyl)piperidine-1-carbonyl]-5,6-dihydro-4H-cyclopenta[c]pyrazol-1-yl]-1-[4-(4-fluoro-2-methyl-phenoxy)-1-piperidyl]ethanone] | 259 | –
Cc1ccccc1OC1CCN(C(=O)Cn2nc(C(=O)N3CC[C@@H](O)[C@@H](F)C3)c3c2C[C@H]2C[C@@H]32)CC1 [Example 27, 2-((3bR,4aR)-3-((3S,4R)-3-fluoro-4-hydroxypiperidine-1-carbonyl)-3b,4,4a,5-tetrahydro-1H-cyclopropa[3,4]cyclopenta[1,2-c]pyrazol-1-yl)-1-(4-(o-tolyloxy)piperidin-1-yl)ethanone] | 26.3 | –
Cc1ccccc1OC1CCN(C(=O)Cn2nc(C(=O)N3CC[C@@H](O)[C@@H](F)C3)c3c2CCC3)CC1 [Example 40, 2-(3-((3S,4R)-3-fluoro-4-hydroxypiperidine-1-carbonyl)-5,6-dihydrocyclopenta[c]pyrazol-1(4H)-yl)-1-(4-(o-tolyloxy)piperidin-1-yl)ethanone] | 107 | –
C[C@@H]1C[C@H](Oc2ccccc2Cl)CCN1C(=O)Cn1nc(C(=O)N2CCN(C(=O)CO)CC2)c2c1C[C@H]1C[C@@H]21 [Example 4, 1-((2R,4R)-4-(2-chlorophenoxy)-2-methylpiperidin-1-yl)-2-((3bR,4aR)-3-(4-(2-hydroxyacetyl)piperazine-1-carbonyl)-3b,4,4a,5-tetrahydro-1H-cyclopropa[3,4]cyclopenta[1,2-c]pyrazol-1-yl)ethanone] | 315 | –
Cc1ccccc1OC1CCN(C(=O)Cn2nc(C(=O)N3C[C@@H](C)O[C@@H](C)C3)c3c2CCC3)CC1 [Example 116, 2-{3-[(2R,6S)-2,6-dimethylmorpholine-4-carbonyl]-5,6-dihydrocyclopenta[c]pyrazol-1(4H)-yl}-1-[4-(2-methylphenoxy)piperidin-1-yl]ethan-1-one] | 46.8 | –
Cc1ccc(OC2CCN(C(=O)Cn3nc(C(=O)N4C[C@@H](C)O[C@@H](C)C4)c4c3CCC4)CC2)cc1 [Example 95, 2-{3-[(2R,6S)-2,6-dimethylmorpholine-4-carbonyl]-5,6-dihydrocyclopenta[c]pyrazol-1(4H)-yl}-1-[4-(4-methylphenoxy)piperidin-1-yl]ethan-1-one] | 360 | –
